# Measured values reported in ChEMBL document CHEMBL4818998, “Melatonin derivatives combat with inflammation-related cancer by targeting the Main Culprit STAT3” (Eur J Med Chem, 2021).
# Active and inactive are the calls of the source. The rule behind the calls is not given here.
# How the values were obtained:
# [1] = tested on: HepG2; test: Antiproliferative activity against human HepG2 cells assessed as inhibition of cell proliferation measured after 72 hrs by MTT assay; assay type: functional, cell-based; details: HepG2, 72 h
# [2] = tested on: SGC-7901; test: Antiproliferative activity against human SGC-7901 cells assessed as inhibition of cell proliferation measured after 72 hrs by MTT assay; assay type: functional, cell-based; details: SGC-7901, 72 h
# [3] = tested on: AGS; test: Antiproliferative activity against human AGS cells assessed as inhibition of cell proliferation measured after 72 hrs by MTT assay; assay type: functional, cell-based
# [4] = tested on: MGC-803; test: Cytotoxicity against human MGC-803 cells assessed as reduction in cell viability at <20 uM measured after 24 hrs by CCK8 assay; assay type: cell-based; details: mgc-803, 24 h
# [5] = tested on: HCT-116; test: Antiproliferative activity against human HCT-116 cells assessed as decrease in cell population at S-phase at 1.25 to 10 uM measured after 24 hrs by EdU incorporation based fluorescence microscopic analysis; assay type: functional; details: dose 1.25-10 µM
# [6] = tested on: MGC-803; test: Antiproliferative activity against human MGC-803 cells assessed as decrease in cell population at S-phase at 2 to 16 uM measured after 24 hrs by EdU incorporation based fluorescence microscopic analysis; assay type: functional; details: dose 2-16 µM
# [7] = tested on: HCT-116; test: Induction of apoptosis in human HCT-116 cells assessed as viable cells at 2.5 uM measured after 48 hrs by Annexin V-FITC/PI staining based flow cytometry assay (reference value: 94.9%); assay type: functional; details: read-out: Activity
# [8] = tested on: HCT-116; test: Induction of apoptosis in human HCT-116 cells assessed as late apoptotic cells at 2.5 uM measured after 48 hrs by Annexin V-FITC/PI staining based flow cytometry assay (reference value: 1.42%); assay type: functional
# [9] = tested on: HCT-116; test: Induction of apoptosis in human HCT-116 cells assessed as early apoptotic cells at 5 uM measured after 48 hrs by Annexin V-FITC/PI staining based flow cytometry (reference value: 2.14%); assay type: functional
# [10] = tested on: HCT-116; test: Induction of apoptosis in human HCT-116 cells assessed as late apoptotic cells at 5 uM measured after 48 hrs by Annexin V-FITC/PI staining based flow cytometry (reference value: 1.42%); assay type: functional
# [11] = tested on: HCT-116; test: Induction of apoptosis in human HCT-116 cells assessed as viable cells at 10 uM measured after 48 hrs by Annexin V-FITC/PI staining based flow cytometry (reference value: 94.9%); assay type: functional; details: read-out: Activity
# [12] = tested on: HCT-116; test: Induction of apoptosis in human HCT-116 cells assessed as late apoptotic cells at 10 uM measured after 48 hrs by Annexin V-FITC/PI staining based flow cytometry (reference value: 1.42%); assay type: functional
# [13] = tested on: HCT-116; test: Induction of apoptosis in human HCT-116 cells assessed as necrotic cells at 10 uM measured after 48 hrs by Annexin V-FITC/PI staining based flow cytometry (reference value: 1.5%); assay type: functional
# [14] = tested on: HCT-116; test: Induction of apoptosis in human HCT-116 cells assessed as early apoptotic cells at 20 uM measured after 48 hrs by Annexin V-FITC/PI staining based flow cytometry (reference value: 2.14%); assay type: functional
# [15] = tested on: HCT-116; test: Induction of apoptosis in human HCT-116 cells assessed as necrotic cells at 20 uM measured after 48 hrs by Annexin V-FITC/PI staining based flow cytometry (reference value: 1.5%); assay type: functional
# [16] = tested on: HCT-116; test: Induction of apoptosis in human HCT-116 cells assessed as formation of apoptotic bodies at 2.5 to 15 uM measured after 48 hrs by Giemsa staining method; assay type: functional, cell-based; details: dose 2.5-15 µM
# [17] = tested on: HCT-116; test: Induction of apoptosis in human HCT-116 cells assessed as chromatin pyknosis at 2.5 to 15 uM measured after 48 hrs by Giemsa staining method; assay type: functional, cell-based; details: dose 2.5-15 µM
# [18] = tested on: HCT-116; test: Antimetastatic activity against human HCT-116 cells assessed as inhibition of cell migration measured after 36 hrs by transwell assay; assay type: functional, cell-based; details: dose 2.5-15 µM
# [19] = target: Signal transducer and activator of transcription 3 (Homo sapiens) (UniProt P40763); test: Inhibition of STAT3 in human HCT-116 cells assessed as decrease in STAT3 phosphorylation at 2.5 to 10 uM measured after 48 hrs by western blot assay; assay type: cell-based; details: dose 2.5-10 µM
# Sequence of Signal transducer and activator of transcription 3 (Homo sapiens) (P40763 whole entry): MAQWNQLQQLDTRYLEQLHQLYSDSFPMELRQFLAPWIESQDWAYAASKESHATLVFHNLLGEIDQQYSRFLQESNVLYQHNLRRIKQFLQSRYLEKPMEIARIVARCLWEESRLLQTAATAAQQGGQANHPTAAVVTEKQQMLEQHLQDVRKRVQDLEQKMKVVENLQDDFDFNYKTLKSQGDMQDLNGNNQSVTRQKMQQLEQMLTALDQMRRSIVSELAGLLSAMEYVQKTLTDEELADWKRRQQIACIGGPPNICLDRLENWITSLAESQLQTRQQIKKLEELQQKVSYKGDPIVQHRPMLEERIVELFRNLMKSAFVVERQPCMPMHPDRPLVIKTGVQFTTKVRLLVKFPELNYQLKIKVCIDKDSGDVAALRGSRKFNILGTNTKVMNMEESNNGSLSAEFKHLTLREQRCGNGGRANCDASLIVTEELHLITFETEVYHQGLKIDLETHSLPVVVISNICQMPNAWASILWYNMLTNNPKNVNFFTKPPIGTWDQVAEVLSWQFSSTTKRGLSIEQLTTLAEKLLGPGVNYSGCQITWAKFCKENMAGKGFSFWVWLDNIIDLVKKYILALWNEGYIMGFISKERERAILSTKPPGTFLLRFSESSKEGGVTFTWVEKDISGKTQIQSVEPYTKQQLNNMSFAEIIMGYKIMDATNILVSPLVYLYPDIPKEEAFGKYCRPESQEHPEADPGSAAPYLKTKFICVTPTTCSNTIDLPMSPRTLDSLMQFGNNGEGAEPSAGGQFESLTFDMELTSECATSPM
# [20] = target: Signal transducer and activator of transcription 3 (Homo sapiens) (UniProt P40763); test: Inhibition of STAT3 in human HCT-116 cells assessed as decrease in Bcl-2 expression at 2.5 to 10 uM measured after 48 hrs by western blot assay; assay type: cell-based; details: dose 2.5-10 µM
# [21] = tested on: MGC-803; test: Downregulation of STAT3 expression in human MGC-803 cells at 4 to 16 uM measured after 48 hrs by western blot assay; assay type: functional, cell-based; details: dose 4-16 µM
# [22] = target: Signal transducer and activator of transcription 3 (Homo sapiens) (UniProt P40763); test: Inhibition of STAT3 in human MGC-803 cells assessed as decrease in STAT3 phosphorylation at 4 to 16 uM measured after 48 hrs by western blot assay; assay type: cell-based; details: dose 4-16 µM
# [23] = target: Signal transducer and activator of transcription 3 (Homo sapiens) (UniProt P40763); test: Inhibition of STAT3 in human MGC-803 cells assessed as decrease in Bcl-2 expression at 4 to 16 uM measured after 48 hrs by western blot assay; assay type: cell-based; details: dose 4-16 µM
# [24] = target: Signal transducer and activator of transcription 3 (Homo sapiens) (UniProt P40763); test: Inhibition of STAT3 in human MGC-803 cells assessed as inhibition of nuclear translocation of STAT3 at 10 uM measured after 3 hrs by Hoechst/fluorochrome-conjugated antibody staining based confocal laser microscopy; assay type: cell-based
# [25] = Toxicity in Kunming mouse assessed as animal activity at 1000 mg/kg, ig measured for 14 days; assay type: organism-based; details: in vivo, po, 336 h, time 14 day
# [26] = tested on: HCT-116; test: Induction of apoptosis in human HCT-116 cells assessed as […] of cleaved caspase-3 expression at 2.5 to 10 uM measured after 48 hrs by western blot assay; assay type: functional, cell-based; details: dose 2.5-10 µM
# [27] = Toxicity in Kunming mouse assessed as feeding frequency and amount at 1000 mg/kg, ig measured for 14 days; assay type: organism-based; details: in vivo, po, 336 h, time 14 day
# [28] = Observed AUC (0 to infinity) in Sprague-Dawley rat at 100 mg/kg, ig measured for 24 hrs by LC-MS analysis; assay type: ADME, organism-based; parameters: route intragastric, time 24 hrs, dose 100 mg/kg; details: in vivo, po
# [29] = Observed apparent oral clearance in Sprague-Dawley rat at 100 mg/kg measured for 24 hrs by LC-MS analysis; assay type: ADME, organism-based; details: in vivo
# [30] = tested on: MGC-803; test: Induction of cell cycle arrest in human MGC-803 cells at 2.5 to 20 uM measured after 48 hrs by propidium iodide staining based flow cytometry analysis; assay type: functional; details: dose 2.5-20 µM
# [31] = tested on: MGC-803; test: Antimetastatic activity against human MGC-803 cells assessed as inhibition of cell invasion measured after 24 hrs by transwell assay; assay type: functional, cell-based; details: dose 2.5-15 µM
# [32] = tested on: RAW264.7; test: Anti-inflammatory activity against mouse RAW264.7 cells assessed as decrease in LPS-induced TNF-alpha secretion measured after 24 hrs by ELISA; assay type: functional, cell-based; details: dose 5-20 µM
# [33] = Cytotoxicity against LPS-stimulated mouse RAW264.7 cells assessed as cell viability at 5 to 20 microM measured after 24 hrs; assay type: cell-based; details: LPS-stimulated RAW264.7 cells, dose 5-20 µM, read-out: Activity
# [34] = tested on: MGC-803; test: Downregulation of STAT3 expression in human MGC-803 cells at 10 uM measured after 3 hrs by Hoechst/fluorochrome-conjugated antibody staining based confocal laser microscopy; assay type: functional, cell-based
# [35] = tested on: HCT-116; test: Downregulation of STAT3 expression in human HCT-116 cells at 10 uM measured after 3 hrs by Hoechst/fluorochrome-conjugated antibody staining based confocal laser microscopy; assay type: functional, cell-based
# [36] = Toxicity in po dosed Kunming mouse; assay type: organism-based; details: in vivo
structure (smiles),measurement,setting,value
Cc1c(Cl)cccc1Nc1ccccc1C(=O)NCCc1c[nH]c2ccccc12,IC50,[1],7.37 µM
same,IC50,[2],15.5 µM
same,IC50,[3],9.12 µM
same,Activity,[4],Non-Toxic
same,Activity,[5],Active
same,Activity,[6],Active
same,viability at 2.5 µM,[7],91.3%
same,Activity,[8],3.12%
same,Activity,[9],5.44%
same,Activity,[10],3.94%
same,viability at 10 µM,[11],58.5%
same,Activity,[12],6.12%
same,Activity,[13],2.42%
same,Activity,[14],42.5%
same,Activity,[15],2.62%
same,Activity,[16],Active
same,Activity,[17],Active
same,Activity,[18],Dose-Dependent Effect
same,inhibition,[19],Active
same,inhibition,[20],Active
same,inhibition,[21],Active
same,inhibition,[22],Active
same,inhibition,[23],Active
same,inhibition,[24],Active
same,Activity,[25],Non-Toxic
same,Activity,[26],Active
same,Activity,[27],Non-Toxic
same,AUC(0-inf),[28],1930 ng·h/mL
same,CL/F,[29],51.75 (mg/kg)/(microg/ml)/hr
same,Activity,[30],inactive
same,Activity,[31],Dose-Dependent Effect
same,Activity,[32],Dose-Dependent Effect
same,viability at 24 h,[33],> 80%
same,inhibition,[34],Active
same,inhibition,[35],Active
same,LD50,[36],> 1000 mg/kg
